In US20230201173A1, “SMAD4 Complex Inducers and Uses in Cancer Therapy” (Emory University, priority 2021, published 2023):
Numbering of substitutions follows the chain as printed.

B1: His-SMAD4WT, Q13485 1-552 (protein, not shown: small tags and cut ends)
chain: MDNMSITNTPTSNDACLSIVHSLMCHRQGGESETFAKRAIESLVKKLKEKKDELDSLITAITTNGAHPSKCVTIQRTLDGRLQVAGRKGFPHVIYARLWRWPDLHKNELKHVKYCQYAFDLKCDSVCVNPYHYERVVSPGIDLSGLTLQSNAPSSMMVKDEYVHDFEGQPSLSTEGHSIQTIQHPPSNRASTETYSTPALLAPSESNATSTANFPNIPVASTSQPASILGGSHSEGLLQIASGPQPGQQQNGFTGQPATYHHNSTTTWTGSRTAPYTPNLPHHQNGHLQHHPPMPPHPGHYWPVHNELAFQPPISNHPAPEYWCSIAYFEMDVQVGETFKVPSSCPIVTVDGYVDPSGGDRFCLGQLSNVHRTEAIERARLHIGKGVQLECKGEGDVWVRCLSDHAVFVQSYYLDREAGRAPGDAVHKIYPSAYIKVFDLRQCHRQMQQQAATAQAAAAAQAAAVAGNIPGPGSVGGIAPAISLSAAAGIGVDDLRRLCILRMSFVKGWGPDYPRQSIKETPCWIEIHLHRALQLLDEVLHTMPIADPQPLD
B2: His-SMAD4R361H, Q13485 1-552 (protein, not shown: small tags and cut ends)
chain: B1 chain with R361H

Assays:
[1] = biological target: T1, His-SMAD4R361H/Flag-SMAD3 PPI (Homo sapiens, UniProt Q13485, R361H); assay: TR-FRET assay of the SMAD4R361H/SMAD3 protein-protein interaction in cell lysate; type: binding; conditions: dose-response, read-out: EC50, increase of the TR-FRET signal of SMAD4R361H-SMAD3 PPI
T1 construct: expressed in transfected cells; host or cells: HEK293T
T1 sequence (Q13485 whole entry R361H): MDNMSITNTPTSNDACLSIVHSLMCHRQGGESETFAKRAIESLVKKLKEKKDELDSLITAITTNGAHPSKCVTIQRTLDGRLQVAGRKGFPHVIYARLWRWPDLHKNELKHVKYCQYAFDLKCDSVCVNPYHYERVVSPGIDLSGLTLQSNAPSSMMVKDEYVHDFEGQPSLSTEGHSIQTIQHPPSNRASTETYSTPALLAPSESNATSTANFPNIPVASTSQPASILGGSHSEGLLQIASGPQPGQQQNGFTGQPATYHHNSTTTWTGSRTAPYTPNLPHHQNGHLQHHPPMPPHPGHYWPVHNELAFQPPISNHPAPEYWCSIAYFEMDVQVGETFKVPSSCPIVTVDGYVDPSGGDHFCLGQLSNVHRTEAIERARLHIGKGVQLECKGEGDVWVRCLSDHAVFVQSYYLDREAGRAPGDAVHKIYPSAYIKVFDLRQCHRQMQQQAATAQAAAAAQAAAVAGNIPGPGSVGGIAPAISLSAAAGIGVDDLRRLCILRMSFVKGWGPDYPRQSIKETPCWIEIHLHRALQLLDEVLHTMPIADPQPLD
T1 sequence (P84022 whole entry partner): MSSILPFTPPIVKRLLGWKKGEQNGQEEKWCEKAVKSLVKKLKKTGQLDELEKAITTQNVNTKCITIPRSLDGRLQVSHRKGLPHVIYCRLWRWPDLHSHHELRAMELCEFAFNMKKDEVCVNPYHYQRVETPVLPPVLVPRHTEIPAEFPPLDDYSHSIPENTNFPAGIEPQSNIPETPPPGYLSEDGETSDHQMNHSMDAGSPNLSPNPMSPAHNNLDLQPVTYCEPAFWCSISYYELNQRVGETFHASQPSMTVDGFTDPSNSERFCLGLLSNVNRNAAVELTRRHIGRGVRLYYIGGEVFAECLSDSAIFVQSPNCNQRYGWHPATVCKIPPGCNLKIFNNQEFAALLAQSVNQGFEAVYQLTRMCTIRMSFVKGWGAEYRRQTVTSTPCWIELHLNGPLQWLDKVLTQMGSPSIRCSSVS

[2] = test system: HCT116 cells (WT), SMAD4 knockout (null) and R361H isogenic cells; assay: Cell viability (CellTiter-Blue) in isogenic colon cancer cells; type: cell-based; conditions: Ro-31-8220 1 μM
Method: HCT116 cells (WT) and corresponding SMAD4 knockout (null) or R361H, isogenic cells were treated with TGF-β (10 ng/mL), Ro-31-8220 (1 μM), Go-6983 (10 μM), or in combination as indicated. The cell viability after treatment was measured using the CellTiter-Blue™ reagent and normalized to the untreated vehicle or DMSO controls (% C).
(§1) Experiments indicate that Ro-31-8220 is capable of restoring the SMAD4mut/SMAD3 PPI and the tumor-suppressive TGF-β signaling in the SMAD4 mutation cells. Experiments were also performed to determine whether Ro-31-8220 can promote TGF-β-evoked anti-proliferation function in cancer cells with SMAD4 missense mutations. Three functional assays were performed to measure the effect of Ro-31-8220 on cell-cycle progression, cell proliferation, and colony formation with WT and isogenic SMAD4 mutant colon cancer cells.
Thus, the effect of Ro-31-8220 on TGF-β-regulated cell proliferation was examined in the context of the SMAD4 mutation. TGF-β induced a significant decrease of cell viability of SMAD4 WT cells, while the isogenic SMAD4 null or R361H cells were resistant to such TGF-β-induced growth suppression (FIG. 3B).

[3] = biological target: T2, SMAD4R361H-SMAD3 complex (Homo sapiens, UniProt Q13485, R361H); assay: GST beads pull-down assay of SMAD4R361H-SMAD3 complex formation; type: binding; conditions: cell lysate treated with compound, read-out: EC50, amount of SMAD3 in the SMAD4R361H complex
T2 construct: expressed in transfected cells
T2 sequence (Q13485 whole entry R361H): as the sequence (Q13485 whole entry R361H) above
T2 sequence (P84022 whole entry partner): as the sequence (P84022 whole entry partner) above

[4] = test system: SMAD4R361H with R-SMADs (SMAD3, SMAD2, SMAD1, SMAD5, SMAD8); assay: TR-FRET assay of SMAD4R361H with different R-SMAD isoforms; type: binding, Homo sapiens; conditions: for R-SMAD selectivity in inducing the interaction of SMAD4R361H with SMAD3 and SMAD2: among all the tested R-SMADs; for compound-induced TR-FRET signal for SMAD4R361H interaction with SMAD3 versus other R-SMADs: compound titration
Method: To determine the R-SMADs selectivity of Ro-31-8220 and Go-6983, experiments were performed to determine their effects on inducing PPI between SMAD4R361H and different isoforms of R-SMADs using the TR-FRET assay.

[5] = biological target: T3, SMAD4D351H-SMAD3 PPI (Homo sapiens, UniProt Q13485, D351H); assay: GST pull-down assay of SMAD4D351H-SMAD3 complex formation; type: binding; conditions: DMSO as control
T3 construct: expressed in transfected cells
T3 sequence (Q13485 whole entry D351H): as the sequence (Q13485 whole entry R361H) above, with D351H, H361R counted along it
T3 sequence (P84022 whole entry partner): as the sequence (P84022 whole entry partner) above
Text: To evaluate the mutation selectivity of Ro-31-8220 and Go-6983, their potentiation effect on other SMAD4 loss-of-function mutations, such as D351H, was examined. The PPI between SMAD3 and SMAD4D351H was studied in the presence of these compounds with DMSO as a control.

[6] = test system: HCT116 isogenic SMAD4 R361H cells; assay: Colony formation assay; type: cell-based; conditions: TGF-β 10 ng/mL; Ro-31-8220 1 μM, Go-6983 10 μM
Method: Parental HCT116 (WT) and isogenic R361H cells were treated with TGF-β (10 ng/mL), Ro-31-8220 (1 μM), Go-6983 (10 μM), or in combination as indicated.
as §1
The lost tumor suppressor function of mutated SMAD4, R361H, can be recapitulated in an in vitro tumorigenic assay. Colon cancer HCT116 cells with WT and their isogenic mutant SMAD4 cells can grow into large colonies.

[7] = test system: R361H cells; assay: Transcriptional response to TGF-β (pro-apoptotic and pro-autophagy genes); type: cell-based
[8] = test system: HCT116 isogenic SMAD4 R361H cells; assay: Flow cytometry-based cell-cycle analysis (G1/S phase); conditions: TGF-β 10 ng/mL; Ro-31-8220 1 μM, Go-6983 10 μM
Method: Parental HCT116 (WT) and isogenic R361H cells were treated with TGF-β (10 ng/mL), Ro-31-8220 (1 μM), Go-6983 (10 μM), or in combination as indicated. The percentage of cells staying in G1/S phase was determined by flow cytometry.
as §1

[9] = biological target: Flag-SMAD3, P84022; assay: TR-FRET, HEK293T cell lysate, anti-Flag-Tb / anti-His-D2; conditions: remark: other sources report otherwise
Flag-SMAD3, P84022, sequence (P84022 whole entry): as the sequence (P84022 whole entry partner) above

Row | signal-to-background ratio [9] [fold] | Molecule | EC50 [1] [µM] | combination with TGF-β in inhibiting cell viability ([2]; TGF-β 10 ng/mL, Go-6983 10 μM) | EC50 [3] [µM] | R-SMAD selectivity in inducing the interaction of SMAD4R361H with SMAD3 and SMAD2 [4] | compound-induced TR-FRET signal for SMAD4R361H interaction with SMAD3 versus other R-SMADs [4] | SMAD3 level in the D351H GST pull-down complex [5] | combination with TGF-β in inhibiting colon cancer cell colony formation [6] | sensitivity of SMAD4 R361H cells to TGF-β-induced growth suppression ([2]; R361H cells, TGF-β 10 ng/mL, Go-6983 10 μM) | growth inhibition by compound treatment alone ([2]; SMAD4 WT, null and R361H cells) | transcriptional response of R361H cells to TGF-β [7] | colony area of R361H cells, sensitivity to TGF-β-induced inhibition of colony formation [6] | sensitivity of R361H cells to TGF-β-induced G1/S cell-cycle arrest [8]
1 |  | COc1ccc2c(c1)c(C1=C(c3c[nH]c4ccccc34)C(=O)NC1=O)cn2CCCN(C)C [Go-6983, 3-(1-(3-(dimethylamino)propyl)-5-methoxy-1H-indol-3-yl)-4-(1H-indol-3-yl)-1H-pyrrole-2,5-dione] | 15.2 ± 2.9 | synergistic effect | 8.9 ± 0.7 | selective | significantly higher | significantly restored | synergistic effect |  |  |  |  | 
2 |  | Cn1cc(C2=C(c3cn(CCCSC(=N)N)c4ccccc34)C(=O)NC2=O)c2ccccc21 [Ro-31-8220, 3-(3-(4-(1-methyl-1H-indol-3-yl)-2,5-dioxo-2,5-dihydro-1H-pyrrol-3-yl)-1H-indol-1-yl)propyl carbamimidothioate] | 3.9 ± 1 | synergistic effect | 2.1 ± 0.7 | selective | significantly higher | significantly restored | synergistic effect | restored the sensitivity | did not result in any significant growth inhibition | restored the transcriptional response | significantly decreased colony area | regained sensitivity
3 | 30 | B1 |  |  |  |  |  |  |  |  |  |  |  | 
4 | 10 | B2 |  |  |  |  |  |  |  |  |  |  |  | 
